Activity calls are given as the source filed them. The calls are words filed in the database; no cut-off is given here.
Legend:
[1] = target: T1, Sodium-dependent dopamine transporter (Rattus norvegicus, UniProt P23977); assay: biochemical; type: tissue-based, Sprague-Dawley, Brain
Description: Displacement of [3H]WIN-35428 from DAT in Sprague-Dawley rat brain

[2] = target: T1, Sodium-dependent dopamine transporter; assay: Inhibition of [3H]dopamine uptake at DAT in Sprague-Dawley rat brain
[3] = target: Sodium-dependent serotonin transporter (Rattus norvegicus, UniProt P31652); assay: Displacement of [3H]citalopram from SERT in Sprague-Dawley rat brain; type: tissue-based
Chain of Sodium-dependent serotonin transporter (P31652 whole entry): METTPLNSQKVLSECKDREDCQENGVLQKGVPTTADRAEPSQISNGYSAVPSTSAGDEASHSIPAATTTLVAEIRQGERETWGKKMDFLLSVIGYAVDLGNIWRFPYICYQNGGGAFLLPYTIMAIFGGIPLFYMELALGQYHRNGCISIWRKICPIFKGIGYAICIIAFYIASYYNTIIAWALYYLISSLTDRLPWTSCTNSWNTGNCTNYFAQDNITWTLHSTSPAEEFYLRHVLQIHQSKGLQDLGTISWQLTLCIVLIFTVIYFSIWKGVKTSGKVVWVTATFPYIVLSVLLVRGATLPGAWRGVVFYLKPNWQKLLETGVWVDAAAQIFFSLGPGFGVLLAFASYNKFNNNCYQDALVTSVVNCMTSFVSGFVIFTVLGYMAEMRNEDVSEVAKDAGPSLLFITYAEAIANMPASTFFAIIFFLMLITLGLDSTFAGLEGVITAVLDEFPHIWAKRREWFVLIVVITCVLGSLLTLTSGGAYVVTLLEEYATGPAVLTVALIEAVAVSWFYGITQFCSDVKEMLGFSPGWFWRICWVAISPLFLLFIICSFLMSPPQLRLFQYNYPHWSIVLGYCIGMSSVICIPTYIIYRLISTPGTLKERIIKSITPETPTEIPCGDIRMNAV

[4] = target: Norepinephrine transporter (Rattus norvegicus, UniProt Q9WTR4); assay: Displacement of [3H]nisoxetine from NET in Sprague-Dawley rat brain; type: tissue-based
Chain of Norepinephrine transporter (Q9WTR4 whole entry): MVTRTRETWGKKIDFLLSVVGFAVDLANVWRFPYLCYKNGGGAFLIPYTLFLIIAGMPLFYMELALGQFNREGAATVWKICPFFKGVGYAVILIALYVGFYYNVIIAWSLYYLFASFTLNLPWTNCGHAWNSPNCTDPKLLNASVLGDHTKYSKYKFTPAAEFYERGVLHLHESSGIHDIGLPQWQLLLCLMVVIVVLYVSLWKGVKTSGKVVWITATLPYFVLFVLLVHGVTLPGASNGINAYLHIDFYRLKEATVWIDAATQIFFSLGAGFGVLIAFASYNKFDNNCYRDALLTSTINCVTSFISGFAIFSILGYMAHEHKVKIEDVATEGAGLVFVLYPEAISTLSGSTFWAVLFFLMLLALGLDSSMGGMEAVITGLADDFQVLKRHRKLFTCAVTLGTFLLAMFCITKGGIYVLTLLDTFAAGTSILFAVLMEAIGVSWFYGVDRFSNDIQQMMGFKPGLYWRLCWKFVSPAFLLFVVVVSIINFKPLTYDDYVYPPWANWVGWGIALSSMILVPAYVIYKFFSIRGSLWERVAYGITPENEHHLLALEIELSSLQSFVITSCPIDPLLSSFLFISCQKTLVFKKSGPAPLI

[5] = target: T2, Muscarinic acetylcholine receptor M1 (Rattus norvegicus, UniProt P08482); assay: Displacement of [3H]pirenzepine from M1 receptor in Sprague-Dawley rat brain
T2 sequence (P08482 whole entry): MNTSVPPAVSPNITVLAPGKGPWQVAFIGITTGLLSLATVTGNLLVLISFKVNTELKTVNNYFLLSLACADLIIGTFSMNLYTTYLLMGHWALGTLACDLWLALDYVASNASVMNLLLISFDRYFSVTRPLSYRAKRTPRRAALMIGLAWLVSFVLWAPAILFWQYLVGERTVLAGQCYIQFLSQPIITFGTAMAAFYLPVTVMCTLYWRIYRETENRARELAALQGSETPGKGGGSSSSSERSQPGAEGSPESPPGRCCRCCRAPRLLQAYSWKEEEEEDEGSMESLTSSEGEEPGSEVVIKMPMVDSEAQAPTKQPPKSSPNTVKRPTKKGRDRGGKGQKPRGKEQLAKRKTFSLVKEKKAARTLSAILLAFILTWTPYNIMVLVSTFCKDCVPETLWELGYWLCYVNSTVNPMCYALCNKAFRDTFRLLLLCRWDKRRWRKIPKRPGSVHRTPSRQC

Rattus norvegicus [6] = species: Rattus norvegicus; assay: Selectivity for Sprague-Dawley rat DAT over rat M1 receptor
Rattus norvegicus [7] = species: Rattus norvegicus; assay: Drug discriminative activity in Sprague-Dawley rat measured as response on cocaine-appropriate lever; type: functional

T1 sequence (P23977 whole entry): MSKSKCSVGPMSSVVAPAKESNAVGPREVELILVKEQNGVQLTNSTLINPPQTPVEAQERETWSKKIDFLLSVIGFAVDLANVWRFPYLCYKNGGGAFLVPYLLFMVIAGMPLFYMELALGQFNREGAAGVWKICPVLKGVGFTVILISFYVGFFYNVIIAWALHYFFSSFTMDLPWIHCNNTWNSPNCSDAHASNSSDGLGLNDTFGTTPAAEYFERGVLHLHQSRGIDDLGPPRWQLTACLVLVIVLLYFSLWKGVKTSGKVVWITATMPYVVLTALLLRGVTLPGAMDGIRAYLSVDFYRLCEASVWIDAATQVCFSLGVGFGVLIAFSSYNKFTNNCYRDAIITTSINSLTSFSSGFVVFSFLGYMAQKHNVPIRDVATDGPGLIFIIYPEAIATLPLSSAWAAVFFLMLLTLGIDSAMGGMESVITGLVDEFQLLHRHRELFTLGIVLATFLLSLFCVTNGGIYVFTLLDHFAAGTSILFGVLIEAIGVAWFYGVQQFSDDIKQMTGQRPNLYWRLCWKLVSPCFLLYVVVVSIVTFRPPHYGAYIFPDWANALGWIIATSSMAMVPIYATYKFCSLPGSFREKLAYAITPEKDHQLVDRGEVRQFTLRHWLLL

SMILES	Ki [4] [nM]	Ratio Ki (Rattus norvegicus [6])	other results
CCOC(=O)[C@@H]1C2CCC(C[C@@H]1OC(c1ccc(Cl)cc1)c1ccc(Cl)cc1)N2C (stereo partly specified)	3350		Ki [1]: 14.6 nM; IC50 [2]: 1.52 nM; Ki [3]: 1560 nM; Ki [5]: 3060 nM
CCOC(=O)[C@@H]1C2CCC(C[C@@H]1OC(c1ccc(F)cc1)c1ccc(F)cc1)N2 (stereo partly specified)	563	1930	
CN1C2CCC1[C@@H](COC(=O)CCCc1ccc(N)cc1)[C@@H](OC(c1ccc(F)cc1)c1ccc(F)cc1)C2 (stereo partly specified)	440	12	
CN1C2CCC1CC(OC(c1ccc(F)cc1)c1ccc(F)cc1)C2 (stereo unspecified) [DIFLUOROBENZTROPINE]			Activity (Rattus norvegicus [7]): 65%
COC(=O)/C=C/[C@@H]1C2CCC(C[C@@H]1OC(c1ccc(F)cc1)c1ccc(F)cc1)N2C (stereo partly specified)	269	294	
C=C[C@@H]1C2CCC(C[C@@H]1OC(c1ccc(F)cc1)c1ccc(F)cc1)N2C (stereo partly specified)	473	90	
CCCCN1C2CCC1[C@@H](C(=O)OCC)[C@@H](OC(c1ccc(F)cc1)c1ccc(F)cc1)C2 (stereo partly specified)	580	391	
COC(=O)[C@@H]1C2CCC(C[C@@H]1OC(c1ccc(Cl)cc1)c1ccc(Cl)cc1)N2C (stereo partly specified)	2150	30	Ki [1]: 12.6 nM; IC50 [2]: 2.46 nM; Ki [3]: 528 nM; Ki [5]: 382 nM
CN1C2CCC1[C@@H](CO)[C@@H](OC(c1ccc(F)cc1)c1ccc(F)cc1)C2 (stereo partly specified)	983	31	Ki [1]: 3.4 nM
CCOC(=O)[C@@H]1C2CCC(C[C@@H]1OC(c1ccc(F)cc1)c1ccc(F)cc1)N2C (stereo partly specified)		275	
CN1C2CCC1[C@@H](COC(=O)CCCc1ccc([N+](=O)[O-])cc1)[C@@H](OC(c1ccc(F)cc1)c1ccc(F)cc1)C2 (stereo partly specified)	2130	18	Ki [3]: 3780 nM; Ki [5]: 708 nM
COC(=O)[C@@H]1C2CCC(C[C@@H]1OC(c1ccc(F)cc1)c1ccc(F)cc1)N2C (stereo partly specified)		45	
COC(=O)C1C(OC(c2ccc(Cl)cc2)c2ccc(Cl)cc2)CC2CCC1N2C (racemic)			Activity (Rattus norvegicus [7]): inactive
C=CCN1C2CCC1[C@@H](C(=O)OCC)[C@@H](OC(c1ccc(F)cc1)c1ccc(F)cc1)C2 (stereo partly specified)	935	1040	
COC(=O)CC[C@@H]1C2CCC(C[C@@H]1OC(c1ccc(F)cc1)c1ccc(F)cc1)N2C (stereo partly specified)	454	832	
